Consider 1 compound from US20040133938A1, “Use of lipoic acid in plant culture media” (priority 2002, published 2004).

Experiment [1] has as its system MicroTom cotyledon explants. The experiment can be described thus: Transient GUS expression in MicroTom cotyledon explants. The experiment is classed as cell-based, Lycopersicon esculentum. Particulars: for % High transient expression / % Low transient expression / % No transient expression: GUS, after 5 days on selection media. On the procedure:
Cotyledon explants were isolated from seedlings 7 days after sowing seeds on Davis Germination medium. Cotyledon explants were prepared by bathing them in 6 mL of TXD liquid medium (4.3 g/L MS salts, 2 mL/L Gamborg's B-5 500× salts, 4 mg/L pCPA (p-chlorophenoxyactic acid), 0.005 mg/L kinetin, and 30 g/L sucrose) to prevent desiccation and trimming them at both ends using a #15 feather blade. Immediately after the trimming, the cotyledon explants were gently placed on “feeder plates” containing UC2PC medium (2.2 g/L MS salts, 2.2 mL/L, Gamborg's B-5 500× salts, 0.2 mg/L 2,4-D, 4 mg/L pCPA, 0.1 mg/L kinetin, 30 g/L sucrose, 0.2 g/L potassium phosphate, 10 g/L agar, 8 mL/L acetosyringone (4.91 mg/mL), and 4 mL galacturonic acid (53.05 mg/mL)). The “feeder plates” are made by overlaying 2 mL of tobacco suspension cells and a sterile Whatman filter on the plates containing UC2PC medium. The cotyledon explants were gently poked with a sharp forceps (ASIM5311, Stainless French, made in Switzerland). Usually six to ten pokes were made per explant depending the size of cotyledons. Right after poking, the cotyledons were inoculated with Agrobacterium containing pMON15715 (FIG. 1) by adding 3 mL of the adjusted Agrobacterium solution on top of the cotyledons. The plates were incubated for 10 min at room temperature, and the Agrobacterium solution was aspirated with a sterile pipette. The cotyledons were then co-cultured for 2 days at 23-24° C. under a 16-h photoperiod. The co-culture plates were placed in plastic bags to keep the humidity, which is preferable for MicroTom growth.
Two days after co-cultivation, cotyledons were transferred to shoot induction medium SI-2 (4.3 g/L MS salts, 2 mL/L, Gamborg's B-5 500× salts, 30 g/L sucrose, 10 g/L agar, 500 mg/L carbenicillin, 100 mg/L cefotaxime, 0.1 mg/L IAA, and 2 mg/L zeatin riboside) supplemented with 10 μM of lipoic acid and 100 mg/L kanamycin. Three to four weeks after the induction stage, the cotyledons formed buds or shoots. Cotyledons with buds or shoots were separated by individual event and transferred to, shoot elongation medium E2 (SI-2 medium without IAA), supplemented with 100 mg/L kanamycin for two to four weeks. All culture plates were placed in a culture box, placed inside a plastic bag, and cultured at 23-24° C. under a 16 h photoperiod.
At the same time the tissue browning severity was measured, transient expression of the gus gene was scored. High transient expression was defined as an explant having more than 30% of the pokes that produced GUS blue spots. Low transient expression was defined as an explant having less than 30% of the pokes that produced GUS blue spots about 5 days after culturing on selection medium. Nontransient expression was determined as an explant having no GUS blue spot. With the lipoic acid treatments at the concentrations of 10 and 50 μM, the percentage of explants having high transient expression doubled from 30% (non-lipoic acid treatment) up to 60.9% (Table 2). […] When lipoic acid was used in the selection process at the concentrations of 10, 50 and 100 μM, 100% of explants transiently expressed the GUS gene, but without lipoic acid or lipoic acid at the concentration of 5 μM, 20% and 9.5% of explants had no GUS transient expression.

The subject of experiment [2] is cotton hypocotyl explants. Briefly: Cotton transformation: embryogenic callus formation, lipoic acid in UMSEL media. The format is cell-based. Particulars: average from 3 experiments. The method, then: Cotton seed was washed in 2 teaspoons of detergent in 700-800 mL of sterile water for 10 minutes. Seed was then soaked in fungicide solution (0.6 g benlate, 0.6 g captan per 100 mL sterile water) for 10 min, drained, but not rinsed. Seed was imbibed for 30 minutes in 800 mL of 50% Clorox with 3 drops of Tween-20 and then rinsed 3 times with sterile water. Seed was spread in a sterile phytatray containing 1/2 MS plus 1% glucose media at a density of approximately 20 seeds per tray. Seeds were germinated in the dark at 28° C. for 7-10 days.
Agrobacterium was prepared by streaking a solid LBssck plate from frozen stock and incubating at 28° C. for 2 days. Two mL of liquid LBssck was inoculated with a single colony from the plate and grown overnight at 28° C. Culture is diluted 1:10 with fresh LBssck and cultured overnight at 28° C. The cells were spun down, the supernatant was poured off, cells were washed with MSO media and then resuspended in 20 mL of MSO.
Explants were harvested by cutting off the cotyledons and then making a cut approximately 4 to 6 cm below the cotyledon. Hypocotyl sections were placed in MSO media and then cut into 0.5 to 1 cm pieces.
Twenty mL of Agrobacterium broth was added to 100 to 500 cut explant sections and allowed to soak for 20 minutes. Explants were moved to co-culture medium (TrCO; see media descriptions below), covered with a plastic bag and co-cultured at room temperature for 2 days. After co-culture, explants were moved to UMSEL (1) media (with kanamycin or glyphosate selection), parafilmed and cultured in the light ( 16/8 photoperiod) at 28° C. for 4 weeks. Tissue was then transferred to fresh UMSEL (2) media containing selection in the same culture conditions for an additional 4 weeks.
Independent calli that had formed were then moved to UMO(1) containing selection, parafilmed and cultured in the dark at 28° C. for 8 weeks. After 8 weeks, tissue was transferred to fresh UMO(2) containing selection, parafilmed, and cultured in the dark for an additional 8 weeks. Good embryogenic callus was moved to TRP embryo maturation media, parafilmed and cultured in the dark at 28° C. Embryogenic callus was subcultured to fresh TRP media every 4 weeks until somatic embryos formed and were moved to SHSU embryo germination media. Once on parafilmed SHSU plates, the shoots were placed in the light at 28° C. and subcultured every four weeks until roots began to form. When healthy roots and leaves were present, the shoots were moved to SHSU media in sundae cups and eventually to soil.

Setting [3] is: 5 μM lipoic acid for 8 weeks in UMSEL media.
The mark [4] stands for this setting: 10 μM lipoic acid for 8 weeks in UMSEL media.
Setting [5] is: 50 μM lipoic acid for 8 weeks in UMSEL media.
Where [6] appears, read: 100 μM lipoic acid for 8 weeks in UMSEL media.

`O=C(O)CCCCC1CCSS1` (stereo not shown) [lipoic acid, 1,2-dithiolane-3-pentanoic acid]: the “% High transient expression” value was 42.9% in experiment [1] (5 μM lipoic acid), 60.9% in experiment [1] (10 μM lipoic acid), 56.5% in experiment [1] (50 μM lipoic acid) and 34.8% in experiment [1] (100 μM lipoic acid). Moreover, the “% Low transient expression” value was determined as 47.6% in experiment [1] (5 μM lipoic acid), 39.1% in experiment [1] (10 μM lipoic acid), 43.5% in experiment [1] (50 μM lipoic acid) and 65.2% in experiment [1] (100 μM lipoic acid). Also, the “% No transient expression” value in experiment [1] (5 μM lipoic acid) is 9.5%; in experiment [1] (10 μM lipoic acid), 0%; in experiment [1] (50 μM lipoic acid), 0%; in experiment [1] (100 μM lipoic acid) it was 0%. The “% of explants that transiently expressed the GUS gene” value in experiment [1] (lipoic acid at 10, 50 and 100 μM in the selection process) was determined as 100%. For the same compound, in experiment [1] (summary, MicroTom transformation), the “increase of the percentage of explants having high level of transient expression” value amounted to 2 fold. For the same compound, the “Frequency (%) of embryogenic callus formation” value is recorded as 49.4% in experiment [2] (setting [3]), 31.4% in experiment [2] (setting [4]), 61.2% in experiment [2] (setting [5]) and 56.6% in experiment [2] (setting [6]). In addition, the Putative embryogenic calli in experiment [2] (setting [3]) was found to be 132; in experiment [2] (setting [4]), 88; in experiment [2] (setting [5]), 120; in experiment [2] (setting [6]), 107.
